Source: patent US20080009418A1, “Selective Inhibitors” (Alchemia LTD., priority 2004, published 2008)

Legend:
Conditions in all cases: compound at 10 μM
[1] = biological target: T1, Human opioid (ORL1) (Homo sapiens, UniProt P41146); test: Radioligand binding, human opioid ORL1 membranes, FlashPlate, [125I]-Nociceptin
T1 construct: purchased Perkin Elmer Biosignal
Method in brief: (§1)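 Cloned human receptor membranes were coated onto FlashPlate wells and incubated with radioligand and compound (added from a 0.5 mM DMSO daughter plate) for 1 hour at room temperature in the dark. Scintillation counting gave percent inhibition, with DMSO defining total and reference ligand defining non-specific binding.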

[2] = biological target: T2, Human melanin-concentrating hormone (MCH1) (Homo sapiens, UniProt Q99705); test: Radioligand binding, human melanin-concentrating hormone MCH1 membranes, FlashPlate, [125I]-S36057
T2 construct: purchased Perkin Elmer Biosignal
Method in brief: as §1

[3] = biological target: T3, Human Melanocortin (MC3) (Homo sapiens, UniProt P41968); test: Radioligand binding, human melanocortin MC3 membranes, FlashPlate, [125I]-NDP-αMSH
T3 construct: purchased Perkin Elmer Biosignal
Method in brief: as §1

[4] = biological target: T4, Mouse urotensin (mUR2) (Mus musculus, UniProt Q8VIH9); test: Radioligand binding, mouse urotensin mUR2 membranes, FlashPlate, [125I]-Urotensin II
T4 construct: purchased Perkin Elmer Biosignal
T4 sequence (Q8VIH9 1-385): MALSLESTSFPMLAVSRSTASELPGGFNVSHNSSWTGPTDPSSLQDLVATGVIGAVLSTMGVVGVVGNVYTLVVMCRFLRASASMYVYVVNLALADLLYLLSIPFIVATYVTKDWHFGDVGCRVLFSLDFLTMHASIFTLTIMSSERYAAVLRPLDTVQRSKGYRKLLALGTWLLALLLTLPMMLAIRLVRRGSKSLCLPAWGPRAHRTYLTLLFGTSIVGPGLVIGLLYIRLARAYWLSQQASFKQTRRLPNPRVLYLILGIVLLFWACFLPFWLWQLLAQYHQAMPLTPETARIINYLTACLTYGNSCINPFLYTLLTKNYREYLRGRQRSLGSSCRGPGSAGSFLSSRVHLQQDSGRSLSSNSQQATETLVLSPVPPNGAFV
Method in brief: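 Cloned mouse urotensin (mUR2) receptor membranes from Perkin Elmer Biosignal were immobilized in FlashPlate microplates using a proprietary coating. Each well got 19.5 μl buffer, then 0.5 μl of DMSO, reference ligand, or compound. Adding 5 μl of [125I]-Urotensin II, diluted to 5× final concentration in binding buffer, started binding. Plates were sealed with TopSeal-A and incubated 1 hour at room temperature in the dark. Wells were counted for 30 seconds each on a TopCount after a 60-second delay, and percentage inhibition was calculated.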

[5] = biological target: T5, Human neuropeptide Y (NPY-Y1) (Homo sapiens, UniProt P25929); test: Radioligand binding, human neuropeptide Y NPY-Y1 membranes, FlashPlate, [125I]-PYY
T5 construct: purchased Perkin Elmer Biosignal
T5 sequence (P25929 1-384): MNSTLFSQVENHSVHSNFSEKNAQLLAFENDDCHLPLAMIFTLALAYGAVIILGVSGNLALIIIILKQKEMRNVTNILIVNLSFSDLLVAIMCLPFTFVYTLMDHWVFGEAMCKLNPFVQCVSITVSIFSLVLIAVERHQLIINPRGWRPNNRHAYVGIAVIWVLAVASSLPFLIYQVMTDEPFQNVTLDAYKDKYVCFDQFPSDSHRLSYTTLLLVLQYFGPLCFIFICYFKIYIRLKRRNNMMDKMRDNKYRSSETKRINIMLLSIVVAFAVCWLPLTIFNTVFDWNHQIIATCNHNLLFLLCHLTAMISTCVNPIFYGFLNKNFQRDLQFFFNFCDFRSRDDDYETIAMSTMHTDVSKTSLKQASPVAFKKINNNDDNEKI
Method in brief: as §1

[6] = biological target: T6, Human δ-opioid (DOP) (Homo sapiens, UniProt P41143); test: Radioligand binding, human δ-opioid (DOP) membranes, FlashPlate, [3H]-Bremazocine
T6 construct: purchased Perkin Elmer Biosignal
Method in brief: as §1

[7] = biological target: T7, Human κ-Opioid (KOP) (Homo sapiens, UniProt P41145); test: Radioligand binding, human κ-opioid (KOP) membranes, filtration, [3H]-Diprenorphine
T7 construct: purchased Perkin Elmer Biosignal
Method in brief: (§2)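 Percent inhibition of radioligand binding measured on recombinant human membranes: NK1 with [125I]-Substance P, KOP with [3H]-Diprenorphine. Incubation 1 h at room temperature, then harvest onto 0.3% PEI-soaked filters, cold Tris-HCl pH 7.4 washes and scintillation counting; non-specific binding from reference ligand wells.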

[8] = biological target: T8, Human μ-opioid (MOP) (Homo sapiens, UniProt P35372); test: Radioligand binding, human μ-opioid (MOP) membranes, FlashPlate, [3H]-Naloxone
T8 construct: purchased Perkin Elmer Biosignal
Method in brief: as §1

[9] = biological target: T9, Human Melanocortin (MC4) (Homo sapiens, UniProt P32245); test: Radioligand binding, human melanocortin MC4 membranes, FlashPlate, [125I]-NDP-αMSH
T9 construct: purchased Perkin Elmer Biosignal
Method in brief: as §1

[10] = biological target: T10, Human neurokinin (NK1) (Homo sapiens, UniProt P25103); test: Radioligand binding, human neurokinin NK1 membranes, filtration, [125I]-Substance P
T10 construct: purchased Perkin Elmer Biosignal
Method in brief: as §2

[11] = biological target: T11, Human melanocortin (MC5) (Homo sapiens, UniProt P33032); test: Radioligand binding, human melanocortin MC5 membranes, FlashPlate, [125I]-NDP-αMSH
T11 construct: purchased Perkin Elmer Biosignal
Method in brief: as §1

T1 sequence (P41146 whole entry): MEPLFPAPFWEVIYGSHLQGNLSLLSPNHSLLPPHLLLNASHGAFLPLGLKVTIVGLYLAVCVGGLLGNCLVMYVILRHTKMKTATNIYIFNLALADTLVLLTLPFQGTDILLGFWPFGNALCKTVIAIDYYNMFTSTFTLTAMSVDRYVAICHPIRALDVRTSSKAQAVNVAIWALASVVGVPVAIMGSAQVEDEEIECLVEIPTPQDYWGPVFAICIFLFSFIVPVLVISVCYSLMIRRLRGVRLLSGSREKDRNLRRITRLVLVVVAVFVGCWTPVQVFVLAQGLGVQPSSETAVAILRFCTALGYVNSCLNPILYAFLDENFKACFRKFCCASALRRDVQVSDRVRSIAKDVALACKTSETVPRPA
T7 sequence (P41145 whole entry): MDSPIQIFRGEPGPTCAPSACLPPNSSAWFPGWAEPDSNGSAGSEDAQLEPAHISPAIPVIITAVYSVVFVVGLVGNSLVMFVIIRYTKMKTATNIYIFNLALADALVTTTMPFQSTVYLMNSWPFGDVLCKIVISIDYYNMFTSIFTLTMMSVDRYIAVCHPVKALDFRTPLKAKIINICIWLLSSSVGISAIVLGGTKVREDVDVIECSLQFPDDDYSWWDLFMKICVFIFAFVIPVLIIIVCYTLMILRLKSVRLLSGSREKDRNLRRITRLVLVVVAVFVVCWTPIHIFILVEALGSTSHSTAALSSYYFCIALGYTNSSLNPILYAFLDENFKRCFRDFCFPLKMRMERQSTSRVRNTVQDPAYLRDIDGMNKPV
T9 sequence (P32245 whole entry): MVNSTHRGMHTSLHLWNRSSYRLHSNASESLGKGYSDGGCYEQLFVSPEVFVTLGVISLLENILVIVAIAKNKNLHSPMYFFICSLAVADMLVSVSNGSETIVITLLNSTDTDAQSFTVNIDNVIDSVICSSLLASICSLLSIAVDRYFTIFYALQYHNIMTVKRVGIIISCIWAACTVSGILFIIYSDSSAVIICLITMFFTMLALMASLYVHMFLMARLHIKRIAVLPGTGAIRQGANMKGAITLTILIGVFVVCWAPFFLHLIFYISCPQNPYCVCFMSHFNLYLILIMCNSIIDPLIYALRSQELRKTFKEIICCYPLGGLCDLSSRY
T10 sequence (P25103 whole entry): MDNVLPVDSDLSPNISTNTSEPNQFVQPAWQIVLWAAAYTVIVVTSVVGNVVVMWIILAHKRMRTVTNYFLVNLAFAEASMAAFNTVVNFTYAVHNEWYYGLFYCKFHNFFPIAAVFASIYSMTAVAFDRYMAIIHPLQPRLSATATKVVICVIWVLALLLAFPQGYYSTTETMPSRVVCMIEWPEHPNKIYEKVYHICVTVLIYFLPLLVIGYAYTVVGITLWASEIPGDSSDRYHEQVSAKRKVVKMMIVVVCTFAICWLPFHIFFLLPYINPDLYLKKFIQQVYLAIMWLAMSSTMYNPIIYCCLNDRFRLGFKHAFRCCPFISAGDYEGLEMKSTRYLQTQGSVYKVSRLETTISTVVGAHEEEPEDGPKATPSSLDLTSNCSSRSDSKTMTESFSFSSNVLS
T2 sequence (Q99705 whole entry): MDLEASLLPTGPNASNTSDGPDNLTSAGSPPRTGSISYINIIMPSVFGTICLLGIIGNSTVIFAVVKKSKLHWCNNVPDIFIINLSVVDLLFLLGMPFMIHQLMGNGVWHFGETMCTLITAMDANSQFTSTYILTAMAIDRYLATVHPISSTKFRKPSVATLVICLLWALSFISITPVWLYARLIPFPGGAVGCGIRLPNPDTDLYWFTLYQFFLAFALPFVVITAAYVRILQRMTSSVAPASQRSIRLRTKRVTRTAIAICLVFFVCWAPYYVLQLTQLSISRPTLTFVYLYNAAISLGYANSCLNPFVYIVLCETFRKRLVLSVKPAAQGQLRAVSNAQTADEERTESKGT
T6 sequence (P41143 whole entry): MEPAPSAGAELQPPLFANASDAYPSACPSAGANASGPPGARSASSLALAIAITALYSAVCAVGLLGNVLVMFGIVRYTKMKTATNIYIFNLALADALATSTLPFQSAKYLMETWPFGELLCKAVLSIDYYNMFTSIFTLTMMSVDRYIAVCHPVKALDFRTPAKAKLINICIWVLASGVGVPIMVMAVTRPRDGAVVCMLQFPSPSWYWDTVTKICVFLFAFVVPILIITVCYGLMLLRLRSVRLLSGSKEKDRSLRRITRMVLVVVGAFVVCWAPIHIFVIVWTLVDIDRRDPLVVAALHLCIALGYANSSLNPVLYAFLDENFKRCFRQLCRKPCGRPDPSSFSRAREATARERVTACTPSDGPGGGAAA
T11 sequence (P33032 whole entry): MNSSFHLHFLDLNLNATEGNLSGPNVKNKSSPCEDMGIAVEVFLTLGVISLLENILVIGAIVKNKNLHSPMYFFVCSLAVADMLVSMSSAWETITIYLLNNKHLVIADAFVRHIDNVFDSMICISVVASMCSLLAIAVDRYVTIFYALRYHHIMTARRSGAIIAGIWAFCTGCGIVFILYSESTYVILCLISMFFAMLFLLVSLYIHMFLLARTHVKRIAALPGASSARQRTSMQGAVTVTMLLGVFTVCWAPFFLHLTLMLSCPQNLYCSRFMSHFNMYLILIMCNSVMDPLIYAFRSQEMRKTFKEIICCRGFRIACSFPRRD
T3 sequence (P41968 whole entry): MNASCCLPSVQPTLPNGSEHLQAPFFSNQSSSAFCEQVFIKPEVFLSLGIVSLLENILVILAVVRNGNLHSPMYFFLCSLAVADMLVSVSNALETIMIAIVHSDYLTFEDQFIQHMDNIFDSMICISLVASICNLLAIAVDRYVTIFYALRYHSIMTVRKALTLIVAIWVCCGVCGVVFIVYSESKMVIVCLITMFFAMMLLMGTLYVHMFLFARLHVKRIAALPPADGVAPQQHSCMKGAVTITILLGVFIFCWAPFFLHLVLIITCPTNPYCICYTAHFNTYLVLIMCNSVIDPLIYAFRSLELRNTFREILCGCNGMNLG
T8 sequence (P35372 whole entry): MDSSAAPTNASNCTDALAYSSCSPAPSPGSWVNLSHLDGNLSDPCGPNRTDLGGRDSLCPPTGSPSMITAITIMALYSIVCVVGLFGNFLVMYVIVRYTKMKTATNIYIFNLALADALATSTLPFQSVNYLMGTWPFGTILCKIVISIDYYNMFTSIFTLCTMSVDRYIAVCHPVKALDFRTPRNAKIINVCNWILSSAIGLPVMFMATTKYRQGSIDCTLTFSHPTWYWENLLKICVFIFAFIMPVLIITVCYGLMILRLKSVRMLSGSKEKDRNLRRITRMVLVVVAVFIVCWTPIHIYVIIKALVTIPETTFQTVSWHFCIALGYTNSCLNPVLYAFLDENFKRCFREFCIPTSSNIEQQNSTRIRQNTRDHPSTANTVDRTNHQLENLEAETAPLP

COCC1OC(OCCc2ccccc2)C(NC(=O)CCN)C(OCc2ccc(Cl)cc2)C1O (stereo not drawn) [compound 221]
A10: inhibition of radioligand binding ([1]; [125I]-Nociceptin, FlashPlate): − (“−” indicates less than 50% inhibition at 10 μM) | A6: inhibition of radioligand binding ([2]; [125I]-S36057, FlashPlate): − (“−” indicates less than 50% inhibition at 10 μM) | A3: inhibition of radioligand binding ([3]; [125I]-NDP-αMSH, FlashPlate): − (“−” indicates less than 50% inhibition at 10 μM) | A11: inhibition of radioligand binding ([4]; [125I]-Urotensin II, FlashPlate): − (“−” indicates less than 50% inhibition at 10 μM) | A9: inhibition of radioligand binding ([5]; [125I]-PYY, FlashPlate): − (“−” indicates less than 50% inhibition at 10 μM) | A1: inhibition of radioligand binding ([6]; [3H]-Bremazocine, FlashPlate): − (“−” indicates less than 50% inhibition at 10 μM) | A2: inhibition of radioligand binding ([7]; [3H]-Diprenorphine, filtration): − (“−” indicates less than 50% inhibition at 10 μM) | A7: inhibition of radioligand binding ([8]; [3H]-Naloxone, FlashPlate): − (“−” indicates less than 50% inhibition at 10 μM) | A4: inhibition of radioligand binding ([9]; [125I]-NDP-αMSH, FlashPlate): − (“−” indicates less than 50% inhibition at 10 μM) | A8: inhibition of radioligand binding ([10]; [125I]-Substance P, filtration): + (“+” indicates greater than 50% inhibition at 10 μM) | A5: inhibition of radioligand binding ([11]; [125I]-NDP-αMSH, FlashPlate): + (“+” indicates greater than 50% inhibition at 10 μM)

CO[C@H]1[C@H](O)[C@@H](COCc2ccccc2)OC(OCc2ccc3ccccc3c2)[C@@H]1NC(=O)CCNC(=N)N (stereo partly drawn) [compound 75]
A10 radioligand binding inhibition ([1]; human ORL1 membranes): − (“−” indicates less than 50% inhibition at 10 μM) | A6 radioligand binding inhibition ([2]; human MCH1 membranes): − (“−” indicates less than 50% inhibition at 10 μM) | A3 radioligand binding inhibition ([3]; human melanocortin MC3 membranes): − (“−” indicates less than 50% inhibition at 10 μM) | A11 radioligand binding inhibition ([4]; mouse urotensin mUR2 membranes): − (“−” indicates less than 50% inhibition at 10 μM) | A9 radioligand binding inhibition ([5]; human NPY-Y1 membranes): − (“−” indicates less than 50% inhibition at 10 μM) | A1 radioligand binding inhibition ([6]; human δ-opioid (DOP) membranes): − (“−” indicates less than 50% inhibition at 10 μM) | A2 radioligand binding inhibition ([7]; human κ-opioid (KOP) membranes): − (“−” indicates less than 50% inhibition at 10 μM) | A7 radioligand binding inhibition ([8]; human μ-opioid (MOP) membranes): + (“+” indicates greater than 50% inhibition at 10 μM) | A4 radioligand binding inhibition ([9]; human melanocortin MC4 membranes): − (“−” indicates less than 50% inhibition at 10 μM) | A8 radioligand binding inhibition ([10]; human neurokinin NK1 membranes): + (“+” indicates greater than 50% inhibition at 10 μM) | A5 radioligand binding inhibition ([11]; human melanocortin MC5 membranes): − (“−” indicates less than 50% inhibition at 10 μM)

CO[C@H]1[C@H](O)[C@@H](COCc2cccc(O)c2)OC(OCc2ccc(Cl)cc2)[C@@H]1NC(=O)CCCNC(=N)N (stereo partly drawn) [compound 157]
A10 radioligand binding, percentage inhibition ([1]; [125I]-Nociceptin): − (“−” indicates less than 50% inhibition at 10 μM) | A6 radioligand binding, percentage inhibition ([2]; [125I]-S36057): + (“+” indicates greater than 50% inhibition at 10 μM) | A3 radioligand binding, percentage inhibition ([3]; [125I]-NDP-αMSH): − (“−” indicates less than 50% inhibition at 10 μM) | A11 radioligand binding, percentage inhibition ([4]; [125I]-Urotensin II): − (“−” indicates less than 50% inhibition at 10 μM) | A9 radioligand binding, percentage inhibition ([5]; [125I]-PYY): − (“−” indicates less than 50% inhibition at 10 μM) | A1 radioligand binding, percentage inhibition ([6]; [3H]-Bremazocine): − (“−” indicates less than 50% inhibition at 10 μM) | A2 radioligand binding, percentage inhibition ([7]; [3H]-Diprenorphine): − (“−” indicates less than 50% inhibition at 10 μM) | A7 radioligand binding, percentage inhibition ([8]; [3H]-Naloxone): − (“−” indicates less than 50% inhibition at 10 μM) | A4 radioligand binding, percentage inhibition ([9]; [125I]-NDP-αMSH): − (“−” indicates less than 50% inhibition at 10 μM) | A8 radioligand binding, percentage inhibition ([10]; [125I]-Substance P): + (“+” indicates greater than 50% inhibition at 10 μM) | A5 radioligand binding, percentage inhibition ([11]; [125I]-NDP-αMSH): + (“+” indicates greater than 50% inhibition at 10 μM)
